The supplement of paper PMC10307832

Columns and labels:
Test in all cases: relative viability (nuclei count vs DMSO), 5 days (fraction); higher = more cells survive
CAL-12T = test system: CAL-12T
In short: (§1)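 One day after seeding in 1536-well plates, lung cancer cell lines were dosed by pin tool. Dosing was either single-drug or a fixed anchor-drug dose plus five library-drug doses (not always all listed) in √10 steps. After 5 days, nuclei were stained in one fix-and-stain step and counted on 4× images, and relative viability is the nuclei count of treated wells over that of vehicle wells, given as the median of duplicate plates.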

ChaGo-K-1 = test system: ChaGo-K-1
In short: as §1

HCC-366 = test system: HCC-366
In short: as §1

HCC-78 = test system: HCC-78
In short: as §1

LC-2-ad = test system: LC-2-ad
In short: as §1

LOU-NH91 = test system: LOU-NH91
In short: as §1

LU99A = test system: LU99A
In short: as §1

NCI-H1395 = test system: NCI-H1395
In short: as §1

NCI-H1651 = test system: NCI-H1651
In short: as §1

NCI-H1734 = test system: NCI-H1734
In short: as §1

NCI-H1755 = test system: NCI-H1755
In short: as §1

NCI-H1793 = test system: NCI-H1793
In short: as §1

NCI-H1944 = test system: NCI-H1944
In short: as §1

NCI-H2087 = test system: NCI-H2087
In short: as §1

NCI-H2170 = test system: NCI-H2170
In short: as §1

NCI-H2228 = test system: NCI-H2228
In short: as §1

NCI-H2405 = test system: NCI-H2405
In short: as §1

NCI-H3122 = test system: NCI-H3122
In short: as §1

NCI-H460 = test system: NCI-H460
In short: as §1

PC-3 [JPC-3] = test system: PC-3 [JPC-3]
In short: as §1

RERF-LC-KJ = test system: RERF-LC-KJ
In short: as §1

UMC-11 = test system: UMC-11
In short: as §1

In the case of NC(=O)Nc1cc(-c2cccc(F)c2)sc1C(=O)N[C@H]1CCCNC1 [AZD7762] + CC(=O)Nc1cccc(-n2c(=O)n(C3CC3)c(=O)c3c(Nc4ccc(I)cc4F)n(C)c(=O)c(C)c32)c1 [Trametinib] (partner 0.02 µM), the relative viability (CAL-12T; first compound 0.01 µM) is reported as 0.391, the relative viability (CAL-12T; first compound 0.03162 µM) is reported as 0.402 and the relative viability (CAL-12T; first compound 0.1 µM) is reported as 0.377. For the same compound, the relative viability (CAL-12T; first compound 0.3162 µM) was 0.325, the relative viability (CAL-12T; first compound 1 µM) was 0.217 and the relative viability (ChaGo-K-1; first compound 0.01 µM) was 0.871. The relative viability (ChaGo-K-1; first compound 0.03162 µM) was 0.914, the relative viability (ChaGo-K-1; first compound 0.1 µM) was 0.93 and the relative viability (ChaGo-K-1; first compound 0.3162 µM) was 0.9. The relative viability (ChaGo-K-1; first compound 1 µM) was 0.958, the relative viability (HCC-366; first compound 0.01 µM) was 0.358 and the relative viability (HCC-366; first compound 0.03162 µM) was 0.329. It also gave a relative viability (HCC-366; first compound 0.1 µM) of 0.363, a relative viability (HCC-366; first compound 0.3162 µM) of 0.325 and a relative viability (HCC-366; first compound 1 µM) of 0.13. It also gave a relative viability (HCC-78; first compound 0.01 µM) of 0.937, a relative viability (HCC-78; first compound 0.03162 µM) of 0.864 and a relative viability (HCC-78; first compound 0.1 µM) of 0.828. For the same compound, the relative viability (HCC-78; first compound 0.3162 µM) was 0.969, the relative viability (HCC-78; first compound 1 µM) was 0.416 and the relative viability (LC-2-ad; first compound 0.01 µM) was 0.914. It also gave a relative viability (LC-2-ad; first compound 0.03162 µM) of 0.9, a relative viability (LC-2-ad; first compound 0.1 µM) of 0.906 and a relative viability (LC-2-ad; first compound 0.3162 µM) of 0.647. For the same compound, the relative viability (LC-2-ad; first compound 1 µM) was 0.544, the relative viability (LOU-NH91; first compound 0.01 µM) was 0.78 and the relative viability (LOU-NH91; first compound 0.03162 µM) was 0.793. For the same compound, the relative viability (LOU-NH91; first compound 0.1 µM) was 0.761, the relative viability (LOU-NH91; first compound 0.3162 µM) was 0.66 and the relative viability (LOU-NH91; first compound 1 µM) was 0.67. For the same compound, the relative viability (LU99A; first compound 0.01 µM) was 0.595, the relative viability (LU99A; first compound 0.03162 µM) was 0.522 and the relative viability (LU99A; first compound 0.1 µM) was 0.523. For the same compound, the relative viability (LU99A; first compound 0.3162 µM) was 0.586, the relative viability (LU99A; first compound 1 µM) was 0.43 and the relative viability (NCI-H1395; first compound 0.01 µM) was 1.18. For the same compound, the relative viability (NCI-H1395; first compound 0.03162 µM) was 1.12, the relative viability (NCI-H1395; first compound 0.1 µM) was 0.92 and the relative viability (NCI-H1395; first compound 0.3162 µM) was 0.637. It also gave a relative viability (NCI-H1395; first compound 1 µM) of 0.368, a relative viability (NCI-H1651; first compound 0.01 µM) of 0.882 and a relative viability (NCI-H1651; first compound 0.03162 µM) of 0.852. It also gave a relative viability (NCI-H1651; first compound 0.1 µM) of 0.871, a relative viability (NCI-H1651; first compound 0.3162 µM) of 0.873 and a relative viability (NCI-H1651; first compound 1 µM) of 0.766. The relative viability (NCI-H1734; first compound 0.01 µM) was 0.761, the relative viability (NCI-H1734; first compound 0.03162 µM) was 0.683 and the relative viability (NCI-H1734; first compound 0.1 µM) was 0.812. It also gave a relative viability (NCI-H1734; first compound 0.3162 µM) of 0.641, a relative viability (NCI-H1734; first compound 1 µM) of 0.562 and a relative viability (NCI-H1755; first compound 0.01 µM) of 0.788. For the same compound, the relative viability (NCI-H1755; first compound 0.03162 µM) was 0.823, the relative viability (NCI-H1755; first compound 0.1 µM) was 0.76 and the relative viability (NCI-H1755; first compound 0.3162 µM) was 0.694. For the same compound, the relative viability (NCI-H1755; first compound 1 µM) was 0.635, the relative viability (NCI-H1793; first compound 0.01 µM) was 0.469 and the relative viability (NCI-H1793; first compound 0.03162 µM) was 0.485. The relative viability (NCI-H1793; first compound 0.1 µM) was 0.456, the relative viability (NCI-H1793; first compound 0.3162 µM) was 0.446 and the relative viability (NCI-H1793; first compound 1 µM) was 0.381. The relative viability (NCI-H1944; first compound 0.01 µM) was 0.443, the relative viability (NCI-H1944; first compound 0.03162 µM) was 0.493 and the relative viability (NCI-H1944; first compound 0.1 µM) was 0.473. The relative viability (NCI-H1944; first compound 0.3162 µM) was 0.523, the relative viability (NCI-H1944; first compound 1 µM) was 0.496 and the relative viability (NCI-H2087; first compound 0.01 µM) was 0.211. The relative viability (NCI-H2087; first compound 0.03162 µM) was 0.212, the relative viability (NCI-H2087; first compound 0.1 µM) was 0.248 and the relative viability (NCI-H2087; first compound 0.3162 µM) was 0.333. The relative viability (NCI-H2087; first compound 1 µM) was 0.254, the relative viability (NCI-H2170; first compound 0.01 µM) was 0.935 and the relative viability (NCI-H2170; first compound 0.03162 µM) was 0.939. It also gave a relative viability (NCI-H2170; first compound 0.1 µM) of 0.945, a relative viability (NCI-H2170; first compound 0.3162 µM) of 0.951 and a relative viability (NCI-H2170; first compound 1 µM) of 0.914. The relative viability (NCI-H2228; first compound 0.01 µM) was 0.483, the relative viability (NCI-H2228; first compound 0.03162 µM) was 0.668 and the relative viability (NCI-H2228; first compound 0.1 µM) was 0.461. It also gave a relative viability (NCI-H2228; first compound 0.3162 µM) of 0.37, a relative viability (NCI-H2228; first compound 1 µM) of 0.187 and a relative viability (NCI-H2405; first compound 0.01 µM) of 0.744. The relative viability (NCI-H2405; first compound 0.03162 µM) was 0.57, the relative viability (NCI-H2405; first compound 0.1 µM) was 0.557 and the relative viability (NCI-H2405; first compound 0.3162 µM) was 0.631. For the same compound, the relative viability (NCI-H2405; first compound 1 µM) was 0.347, the relative viability (NCI-H3122; first compound 0.01 µM) was 0.22 and the relative viability (NCI-H3122; first compound 0.03162 µM) was 0.231. For the same compound, the relative viability (NCI-H3122; first compound 0.1 µM) was 0.223, the relative viability (NCI-H3122; first compound 0.3162 µM) was 0.243 and the relative viability (NCI-H3122; first compound 1 µM) was 0.27. It also gave a relative viability (NCI-H460; first compound 0.01 µM) of 0.327, a relative viability (NCI-H460; first compound 0.03162 µM) of 0.179 and a relative viability (NCI-H460; first compound 0.1 µM) of 0.226. For the same compound, the relative viability (NCI-H460; first compound 0.3162 µM) was 0.171, the relative viability (NCI-H460; first compound 1 µM) was 0.0341 and the relative viability (PC-3 [JPC-3]; first compound 0.01 µM) was 0.699. It also gave a relative viability (PC-3 [JPC-3]; first compound 0.03162 µM) of 0.722, a relative viability (PC-3 [JPC-3]; first compound 0.1 µM) of 0.69 and a relative viability (PC-3 [JPC-3]; first compound 0.3162 µM) of 0.662. It also gave a relative viability (PC-3 [JPC-3]; first compound 1 µM) of 0.515, a relative viability (RERF-LC-KJ; first compound 0.01 µM) of 0.878 and a relative viability (RERF-LC-KJ; first compound 0.03162 µM) of 0.888. For the same compound, the relative viability (RERF-LC-KJ; first compound 0.1 µM) was 0.996, the relative viability (RERF-LC-KJ; first compound 0.3162 µM) was 0.874 and the relative viability (RERF-LC-KJ; first compound 1 µM) was 0.693. The relative viability (UMC-11; first compound 0.01 µM) was 0.678, the relative viability (UMC-11; first compound 0.03162 µM) was 0.696 and the relative viability (UMC-11; first compound 0.1 µM) was 0.656. It also gave a relative viability (UMC-11; first compound 0.3162 µM) of 0.665 and a relative viability (UMC-11; first compound 1 µM) of 0.33.
